Results: patent US5401853A, “Thiadiazole derivatives for the treatment of depressive states” (Laboratorio Farmaceutico C.T. S.r.l., priority 1992, dated 1995)
Read-outs that look alike come from different tables or passages of the source.

How the values were obtained:
[1] = Solubility in solvents; assay type: physicochemical
[2] = tested on: rats; test: Social Interaction test in rats (anxiolythic activity); assay type: in vivo, Sprague-Dawley male rats; conditions: for Social Interaction increase (%): 1 hour before test, vs controls
From the text: The behaviouristic Social Interaction test found by FILE was used. (Animal models of psychiatric disorders, vol. 1 Karger, Basel, pp 151-166).
It consists in an experimental procedure permitting to evaluate the influence of the pharmacological treatment on the spontaneous behaviour of the rat, by means of the social component which in this animal is particularly accentuated.
Sprague-Dawley male rats weighing about 250 g are used. After a normal stabling period (2 weeks), the animal are isolated in smaller cages (267×207×140 mm surface 410 cm^2) for a period of about 5 days.
Then the rats are gathered into couples, avoiding that weight difference between the two animals overcomes 10 g and that the couple components had not previously stabled together.
The couple thus gathered are assigned to the respective treatment group.
Diazepam was utilized as the positive control drug: 1,25 mg/kg are intraperitoneally administered 30' before carrying out the test.
The compounds to be tested are administered 1 hour before carrying out the test.
The box utilized [55×55×30 cm (height)] for the animal observation is white, completely washable and provided with a floor split up into 25 squares.
A 100 Watt lamp is placed upon the box at 50 cm from the floor. The test is realized in a remote room whose only light source is represented by the lamp lighting the box.
The evaluation is carried out in blind. The animals are observed indirectly, by means of a mirror suitably placed.
Evaluated parameters: time passed in Social Interaction (sniffing pursuit, grooming, boxing etc.).
The box is systematically cleaned up after every test.
The results are expressed as a function of a percentage increase of Social Interaction of the treated animals in comparison with the controls.

[3] = tested on: mice; test: Dispair test (Porsolt) in mice; assay type: in vivo, Swiss strain male mice (CD-1 Charles River); conditions: for immobility duration: 1 hour before test; for minimal effective dose: Dispair test, i.p., read-out: active dosage
Method: This behaviouristic test conceived by Porsolt (1977 --Nature, 266 730-732 is generally utilized to evaluate the antidepressant activity.
Swiss strain male mice of average weight of 30 g (CD -1 Charles River) casually assigned to the different treatment groups are used.
The method consists in placing the animal in a plexiglas cylinder 25 cm high and with a diameter of 9 cm filled with water at 24° C. up to a level of 6 cm.
The test lasts 6 minutes and the time in which the animal lets itself float without reacting is measured starting from the 2nd minute (immobility duration).
The animals ape treated by intraperitoneal route (injection volume 10 ml/kg) 1 hour before the test.
The evaluation is carried out in blind. The statistical analysis of the results is carried out where it is possible by means of the T-Student test, otherwise the non parametric test of Mann Whitney is used.

[4] = Acute toxicity (LD50) in mice; conditions: mouse, in vivo, read-out: LD50 (DL50)
[5] = Mus musculus, ip, 1 h, 10 mg/kg i.p., vs control (dosage 0), read-out: immobility duration < % (decrease)
[6] = Mus musculus, ip, 1 h, 0.25 mg/kg i.p., vs control (dosage 0), read-out: immobility duration < % (decrease)
[7] = Mus musculus, ip, 1 h, 0.5 mg/kg i.p., vs control (dosage 0), read-out: immobility duration < % (decrease)
[8] = Mus musculus, ip, 1 h, 1 mg/kg i.p., vs control (dosage 0), read-out: immobility duration < % (decrease)
[9] = Mus musculus, ip, 1 h, 0.1 mg/kg i.p., vs control (dosage 0), read-out: immobility duration < % (decrease)

In the case of Nc1nnc(SCc2ccccc2)s1 [B16, 2-amino-5-benzylmercapto-1,3,4-thiadiazole], the “solubility in alcohols, chloroform, ethyl acetate, acetone” value [1] is reported as “soluble”, the “solubility in ether and water” value [1] is reported as “insoluble” and the “Social Interaction increase (%)” value ([2]; 0.5 mg/kg) is reported as 40%. For the same compound, the “Social Interaction increase (%)” value ([2]; 1 mg/kg) was 67%, the “Social Interaction increase (%)” value ([2]; 2.5 mg/kg) was 94% and the “Social Interaction increase (%)” value ([2]; 5 mg/kg) was 51%. For the same compound, the “shape of dose-response curve, Social Interaction” value ([2]; 0.5-5 mg/kg) was “Gaussian shape”, the immobility duration ([3]; 1 mg/kg i.p.) was 197 ± 22 and the immobility duration ([3]; 5 mg/kg i.p.) was 171 ± 23. For the same compound, the immobility duration ([3]; 10 mg/kg i.p.) was 132 ± 45, the immobility duration ([3]; 15 mg/kg i.p.) was 186 ± 14 and the immobility duration ([3]; 20 mg/kg i.p.) was 199 ± 16. It also gave an inhibition in vivo at 5 mg/kg ([3]; Mus musculus, ip, 1 h, 5 mg/kg i.p., vs control (dosage 0), read-out: immobility duration < % (decrease)) of 16%, an inhibition in vivo at 10 mg/kg [3, 5] of 35% and an inhibition in vivo at 15 mg/kg ([3]; Mus musculus, ip, 1 h, 15 mg/kg i.p., vs control (dosage 0), read-out: immobility duration < % (decrease)) of 8%. The minimal effective dose ([3]; Mus musculus, ip, 1 h) was 5 to 10 mg/kg, the LD50 ([4]; ip) was > 600 mg/kg and the LD50 ([4]; po, per os) was > 600 mg/kg.

Work on CC(=O)Nc1nnc(SCc2ccccc2)s1 [B17, 2-acetylamino-5-benzylmercapto-1,3,4-thiadiazole] yielded an immobility duration ([3]; 0.03 mg/kg i.p.) of 198 ± 16, an immobility duration ([3]; 0.06 mg/kg i.p.) of 159 ± 38 and an immobility duration ([3]; 0.125 mg/kg i.p.) of 167 ± 22. For the same compound, the immobility duration ([3]; 0.25 mg/kg i.p.) was 183 ± 20, the immobility duration ([3]; 0.5 mg/kg i.p.) was 182 ± 25 and the immobility duration ([3]; 1 mg/kg i.p.) was 187 ± 36. For the same compound, the inhibition in vivo at 0.06 mg/kg ([3]; Mus musculus, ip, 1 h, 0.06 mg/kg i.p., vs control (dosage 0), read-out: immobility duration < % (decrease)) was 22%, the inhibition in vivo at 0.125 mg/kg ([3]; Mus musculus, ip, 1 h, 0.125 mg/kg i.p., vs control (dosage 0), read-out: immobility duration < % (decrease)) was 17% and the inhibition in vivo at 0.25 mg/kg [3, 6] was 10%. The inhibition in vivo at 0.5 mg/kg [3, 7] was 10%, the minimal effective dose ([3]; Mus musculus, ip, 1 h) was ~0.5 mg/kg and the LD50 ([4]; ip) was > 1000 mg/kg. The LD50 ([4]; po, per os) was > 1000 mg/kg.

Work on CSc1nnc(N)s1 [B21] yielded an immobility duration ([3]; 20 mg/kg i.p.) of 187 ± 13, an immobility duration ([3]; 25 mg/kg i.p.) of 175 ± 31 and an immobility duration ([3]; 50 mg/kg i.p.) of 161 ± 26. It also gave an immobility duration ([3]; 60 mg/kg i.p.) of 176 ± 21, an immobility duration ([3]; 75 mg/kg i.p.) of 170 ± 39 and an immobility duration ([3]; 100 mg/kg i.p.) of 187 ± 25. It also gave an inhibition in vivo at 20 mg/kg ([3]; Mus musculus, ip, 1 h, 20 mg/kg i.p., vs control (dosage 0), read-out: immobility duration < % (decrease)) of 8%, an inhibition in vivo at 25 mg/kg ([3]; Mus musculus, ip, 1 h, 25 mg/kg i.p., vs control (dosage 0), read-out: immobility duration < % (decrease)) of 16% and an inhibition in vivo at 50 mg/kg ([3]; Mus musculus, ip, 1 h, 50 mg/kg i.p., vs control (dosage 0), read-out: immobility duration < % (decrease)) of 23%. It also gave an inhibition in vivo at 60 mg/kg ([3]; Mus musculus, ip, 1 h, 60 mg/kg i.p., vs control (dosage 0), read-out: immobility duration < % (decrease)) of 16%, an inhibition in vivo at 75 mg/kg ([3]; Mus musculus, ip, 1 h, 75 mg/kg i.p., vs control (dosage 0), read-out: immobility duration < % (decrease)) of 19% and an inhibition in vivo at 100 mg/kg ([3]; Mus musculus, ip, 1 h, 100 mg/kg i.p., vs control (dosage 0), read-out: immobility duration < % (decrease)) of 11%. For the same compound, the LD50 ([4]; ip) was > 1000 mg/kg.

With CC(C)Sc1nnc(N)s1 [B35] the immobility duration ([3]; 10 mg/kg i.p.) was 165 ± 42, the immobility duration ([3]; 15 mg/kg i.p.) was 194 ± 14 and the immobility duration ([3]; 20 mg/kg i.p.) was 185 ± 11. For the same compound, the inhibition in vivo at 10 mg/kg [3, 5] was 17% and the minimal effective dose ([3]; Mus musculus, ip, 1 h) was 10 mg/kg.

For CC(=O)Nc1nnc(SC(C)C)s1 [B36, 2-N-acethyl-5-isopropylmercapto-1,3,4thiadiazole], the immobility duration ([3]; 0.5 mg/kg i.p.) was 178 ± 33, the immobility duration ([3]; 1 mg/kg i.p.) was 159 ± 23 and the immobility duration ([3]; 2.5 mg/kg i.p.) was 188 ± 16. The immobility duration ([3]; 5 mg/kg i.p.) was 196 ± 22, the immobility duration ([3]; 12.5 mg/kg i.p.) was 199 ± 15 and the inhibition in vivo at 1 mg/kg [3, 8] was 19%. It also gave a minimal effective dose ([3]; Mus musculus, ip, 1 h) of 1 mg/kg.

Work on CC(=O)N(C)c1nnc(SC(C)C)s1 [B39, 2-(N-methyl-N-acethyl)-amino-5-isopropylmercapto-1,3,4-thiadiazole] yielded an immobility duration ([3]; 0.125 mg/kg i.p.) of 180 ± 19, an immobility duration ([3]; 0.25 mg/kg i.p.) of 155 ± 36 and an immobility duration ([3]; 0.5 mg/kg i.p.) of 169 ± 30. It also gave an immobility duration ([3]; 1 mg/kg i.p.) of 161 ± 14, an immobility duration ([3]; 5 mg/kg i.p.) of 176 ± 28 and an immobility duration ([3]; 10 mg/kg i.p.) of 204 ± 18. For the same compound, the inhibition in vivo at 0.25 mg/kg [3, 6] was 18%, the inhibition in vivo at 0.5 mg/kg [3, 7] was 10% and the inhibition in vivo at 1 mg/kg [3, 8] was 14%.

With CC(=O)Nc1nnc(SCc2ccc([N+](=O)[O-])cc2)s1 [B45] the immobility duration ([3]; 0.1 mg/kg i.p.) was 182 ± 22, the immobility duration ([3]; 0.25 mg/kg i.p.) was 167 ± 26 and the immobility duration ([3]; 0.5 mg/kg i.p.) was 166 ± 18. The immobility duration ([3]; 1 mg/kg i.p.) was 183 ± 17, the inhibition in vivo at 0.25 mg/kg [3, 6] was 16% and the inhibition in vivo at 0.5 mg/kg [3, 7] was 16%.

With COc1ccc(CSc2nnc(N)s2)cc1 [B51] the immobility duration ([3]; 0.01 mg/kg i.p.) was 200 ± 19, the immobility duration ([3]; 0.03 mg/kg i.p.) was 164 ± 29 and the immobility duration ([3]; 0.1 mg/kg i.p.) was 166 ± 13. It also gave an immobility duration ([3]; 0.3 mg/kg i.p.) of 158 ± 24, an immobility duration ([3]; 1.25 mg/kg i.p.) of 174 ± 40 and an immobility duration ([3]; 5 mg/kg i.p.) of 189 ± 15. The inhibition in vivo at 0.03 mg/kg ([3]; Mus musculus, ip, 1 h, 0.03 mg/kg i.p., vs control (dosage 0), read-out: immobility duration < % (decrease)) was 13%, the inhibition in vivo at 0.1 mg/kg [3, 9] was 12% and the inhibition in vivo at 0.3 mg/kg ([3]; Mus musculus, ip, 1 h, 0.3 mg/kg i.p., vs control (dosage 0), read-out: immobility duration < % (decrease)) was 16%. It also gave a minimal effective dose ([3]; Mus musculus, ip, 1 h) of ~0.5 mg/kg.

COc1ccc(CSc2nnc(NC(C)=O)s2)cc1 [B53] showed an immobility duration ([3]; 0.1 mg/kg i.p.) of 182 ± 16, an immobility duration ([3]; 0.5 mg/kg i.p.) of 165 ± 25 and an immobility duration ([3]; 1 mg/kg i.p.) of 151 ± 29. It also gave an immobility duration ([3]; 2 mg/kg i.p.) of 195 ± 31, an inhibition in vivo at 0.5 mg/kg [3, 7] of 10% and an inhibition in vivo at 1 mg/kg [3, 8] of 15%.

In the case of COc1cccc(CSc2nnc(N)s2)c1 [B63], the “Social Interaction increase (%)” value ([2]; 0.25 mg/kg) is reported as 14%, the “Social Interaction increase (%)” value ([2]; 0.5 mg/kg) is reported as 40% and the “Social Interaction increase (%)” value ([2]; 1 mg/kg) is reported as 70%. The “Social Interaction increase (%)” value ([2]; 2.5 mg/kg) was 73%, the immobility duration ([3]; 0.05 mg/kg i.p.) was 187 ± 34 and the immobility duration ([3]; 0.1 mg/kg i.p.) was 171 ± 26. It also gave an immobility duration ([3]; 0.25 mg/kg i.p.) of 159 ± 22, an immobility duration ([3]; 0.5 mg/kg i.p.) of 166 ± 25 and an immobility duration ([3]; 1 mg/kg i.p.) of 174 ± 30. The immobility duration ([3]; 10 mg/kg i.p.) was 187 ± 26, the inhibition in vivo at 0.1 mg/kg [3, 9] was 15% and the inhibition in vivo at 0.25 mg/kg [3, 6] was 21%. For the same compound, the inhibition in vivo at 0.5 mg/kg [3, 7] was 18% and the inhibition in vivo at 1 mg/kg [3, 8] was 14%.

Work on CN(C)CCCN1c2ccccc2CCc2ccccc21 [imipramine, reference compound] yielded a minimal effective dose ([3]; Mus musculus, ip, 1 h) of 20 mg/kg.
